Source: article PMC9866588, “Novel 7-Chloro-4-aminoquinoline-benzimidazole Hybrids as Inhibitors of Cancer Cells Growth: Synthesis, Antiproliferative Activity, in Silico ADME Predictions, and Docking” (Molecules, 2023)
Structures can show the parent of a compound that is named as a salt. Where two headings read alike, the source gives them in different places.

How the values were obtained:
[1] = system: MDCK1 (Madine–Darby canine kidney) cells; experiment: MTT antiproliferative assay, MDCK1; type: cell-based; settings: mean ± SD of three independent experiments
Method: (§1) The growth inhibition activity was assessed according to the slightly modified procedure performed at the National Cancer Institute, Developmental Therapeutics Program.
(§2) The examined compounds were dissolved in DMSO (1 × 10^−2 M). The experiments were carried out on seven human tumor cell lines and a normal cell line. The following cell lines were used: HeLa (human cervical adenocarcinoma; purchased from ATCC), CaCo-2 (human colorectal adenocarcinoma), MCF-7 (human breast adenocarcinoma), CCRF-CEM (human acute lymphoblastic leukemia), Hut78 (T-cell lymphoma), THP-1 (acute monocytic leukemia), Burkitt lymphoma (Raji), and MDCK1 (Madine–Darby canine kidney). The MDCK1 cells were used between 24 and 26 passages.
(§3) The adherent cells were cultured in Dulbecco’s modified Eagle medium—DMEM (Gibco, Termo Fisher Scientific Inc., Leicestershire, England, UK), supplemented with 10% heat-inactivated fetal bovine serum (FBS, Gibco, Termo Fisher Scientific Inc., Leicestershire, England, UK), 2 mM glutamine, and 100U/0.1mg penicillin/streptomycin. The cells in suspension were cultured in RPMI 1640 (Gibco, Termo Fisher Scientific Inc., Leicestershire, England, UK) medium, supplemented with 10% FBS (Gibco, Termo Fisher Scientific Inc., Leicestershire, England, UK), 2 mM glutamine, 1 mM sodium pyruvate, and 10 mM HEPES. The cells were grown in a humidified atmosphere under the conditions of 37 °C/5% of CO2 gas in the CO2 incubator (IGO 150 CELLlife^TM, JOUAN, Thermo Fisher Scientific, Waltham, MA, USA).
(§4) The adherent cells (HeLa, CaCo-2, MCF-7, and MDCK-1) were plated in 96-well flat bottom plates (Greiner, Frickenhausen, Austria) at a concentration of 2 × 10^4 cells/mL. The suspension cells (Raji, THP-1, CCRF-CEM and Hut78) were plated in 96-well microtiter plates (Sarstead, Newton, NC, USA) at a concentration of 1 × 10^5 cells/mL. Twenty-four hours later, the cells were treated with test agents in […] and incubated for a further 72 h. The working dilutions were freshly prepared on the day of testing. The solvent was also tested for eventual inhibitory activity by adjusting its concentration to be the same as in the working concentrations. After 72 h of incubation, the cell growth rate was evaluated by performing the MTT assay, which detects dehydrogenase activity in viable cells. For this purpose, upon completion of the incubation period, the growth medium was discarded and 50 μL of MTT was added to each well at a concentration of 5 mg/mL. After four hours of incubation at 37 °C, the water insoluble MTT-formazan crystals were dissolved in 150 μL of dimethyl-sulfoxide (DMSO) for the adherent cells and in 10% SDS with 0.01 mol/L HCl for the cells grown in suspension. The absorbance (OD, optical density) was measured on a microplate reader (iMark, BIO RAD, Hercules, CA, USA) at 595 nm.
(§5) The percentage of live cells was calculated as follows: % = OD (sample) − OD (background)/OD (control) − OD (background) × 100.
(§6) The optical density (OD) of the background for the adherent cells is the OD of the MTT solution and DMSO; the OD (background) for the suspension cells is the OD of the culture medium with MTT and 10% SDS with 0.01 mol/L HCl; the OD (control) is the OD of the cells grown without the tested compounds.
(§7) The calculation of the GI50 value curves and QC analysis was performed using the Excel tools and GraphPadPrism software (La Jolla, CA, USA), v. 5.03. Briefly, individual concentration effect curves are generated by plotting the logarithm of the concentration of the tested compounds (X) vs. the corresponding percent inhibition values (Y) using the least squares fit. The best-fit GI50 values are calculated using log (inhibitor) versus normalized response—variable slope equation, where Y Ľ 100/(1 ţ 10 ((LogIC50 _ X) × HillSlope)). The QC criteria parameters (Z0, S:B, R2, HillSlope) were checked for every GI50 curve.

[2] = system: CCRF-CEM (human acute lymphoblastic leukemia) cells; experiment: MTT antiproliferative assay, CCRF-CEM; type: cell-based; settings: for GI50: Homo sapiens, CCRF-CEM, 72 h, MTT, mean ± SD of three independent experiments
Method: as §1, §2, §3, §4, §5, §6, §7

[3] = system: CaCo-2 (human colorectal adenocarcinoma) cells; experiment: MTT antiproliferative assay, CaCo-2; type: cell-based; settings: 72 h, mean ± SD of three independent experiments
Method: as §1, §2, §3, §4, §5, §6, §7

[4] = system: MCF-7 (human breast adenocarcinoma) cells; experiment: MTT antiproliferative assay, MCF-7; type: cell-based; settings: MCF7, 72 h, mean ± SD of three independent experiments
Method: as §1, §2, §3, §4, §5, §6, §7

[5] = system: HeLa (human cervical adenocarcinoma) cells; experiment: MTT antiproliferative assay, HeLa; type: cell-based; settings: 72 h, mean ± SD of three independent experiments
Method: as §1, §2, §3, §4, §5, §6, §7

[6] = system: THP-1 (acute monocytic leukemia) cells; experiment: MTT antiproliferative assay, THP-1; type: cell-based, human; settings: for GI50: Homo sapiens, THP-1, 72 h, MTT, mean ± SD of three independent experiments, read-out: GI50 THP1
Method: as §1, §2, §3, §4, §5, §6, §7

[7] = system: Raji (Burkitt lymphoma) cells; experiment: MTT antiproliferative assay, Raji; type: cell-based, human; settings: for GI50: Homo sapiens, Raji, 72 h, MTT, mean ± SD of three independent experiments
Method: as §1, §2, §3, §4, §5, §6, §7

[8] = system: normal (MDCK1) and tumor cell lines; experiment: MTT antiproliferative assay, ranges stated over several cell lines; type: cell-based
Method: as §1, §2, §3, §4, §5, §6, §7

[9] = system: Hut78 (T-cell lymphoma) cells; experiment: MTT antiproliferative assay, HuT78; type: cell-based, human; settings: for GI50: Homo sapiens, HuT78, 72 h, MTT, mean ± SD of three independent experiments; for tumor selectivity index (SI) HuT78: with respect to MDCK1 cells
Method: as §1, §2, §3, §4, §5, §6, §7

HuT78 cells [10] = experiment: Flow cytometry analysis of cell cycle, HuT78; type: cell-based, human; settings: HuT78, 5 μM, 24 h
Method: (§8) To analyze the effects of the selected compounds (5d, 8d, and 12d) on the cell cycle of the HuT78 and THP-1 cells, the cells were seeded in 6-well plates (5 × 10^5 cells per well) and treated for 24 h with the selected compounds 5d and 12d (5 μM). The cells were then collected and fixed in cold 70% ethanol. The fixed samples were stained with 15 µg/mL of propidium iodide (PI) at room temperature and analyzed by flow cytometry (FACS Canto II, BD Biosciences). The results were analyzed using FlowLogic software.
(§9) One-way ANOVA analysis of variance was performed in the MedCalc statistical program for the analysis of the cell cycle. p-values of less than 0.05 were considered to be statistically significant.

HuT78 cells [11] = experiment: Mitochondrial membrane potential (∆Ψm), TMRE flow cytometry; type: cell-based, human; settings: HuT78, 5 μM, 24 h
Method: Changes in the (∆Ψm) were measured using TMRE (tetramethylrhodamine, ethyl ester and perchlorate) dye. In brief, the tested cells (HuT 78) were plated in 6-well plates at a concentration of 5 × 10^5 cells per well and treated with 5 μM of the compounds 5d and 12d. After 24 h of treatment, the cells were collected, centrifuged for 6 min at 1100 rpm, and stained with 200 nM of TMRE dye according to the kit protocol (TMRE Mitochondrial Membrane Potential Assay Kit, abcam, Cambridge, UK). The positive control cells were treated with 20 μM FCCP (carbonyl cyanide-p-trifluoromethoxyphenylhydrazone) for 10 min. The cells were analyzed by flow cytometry (BD FACSCalibur, Becton Dickinson, San Jose, CA, USA) and FlowJo software (FlowJo, LLC, Ashland, OR, USA).

THP-1 cells = experiment: Flow cytometry analysis of cell cycle, THP-1; type: cell-based, human; settings: THP-1, 5 μM, 24 h
Method: as §8, §9

HuT78 cells [12] = experiment: Annexin V-FITC/PI apoptosis detection; type: cell-based, human; settings: HuT78, 5 μM, 24 h
Method: The proapoptotic potential of compounds 5d and 12d was tested on the HuT78 cells using the Annexin V-FITC Apoptosis Staining/Detection Kit (ab14085; abcam, UK). The cells were plated in 6-well plates at a concentration of 5 × 10^5 cells/well and treated for 24 h with 12d at a concentration of 5 μM. After the incubation period, the cells were collected and centrifuged at 1100 rpm for 6 min, stained according to the manufacturer‘s protocol, and analyzed by flow cytometry (BD FACSCalibur, Becton Dickinson, San Jose, CA, USA) using FlowJo software (FlowJo, LLC, Ashland, OR, USA).

[13] = MTT antiproliferative assay, ranges stated over several cell lines; type: cell-based; settings: human (tumor cell lines) and dog (MDCK1); abstract, range over cell lines; read-out: GI50 range (strong cytotoxic activity)
Method: as §1, §2, §3, §4, §5, §6, §7

[14] = Canis lupus familiaris, MDCK1, 72 h

GI50 [2] [µM] | GI50 [3] [µM] | GI50 [4] [µM] | GI50 [5] [µM] | GI50 [6] [µM] | GI50 [7] [µM] | GI50 [9] [µM] | Compound | GI50 [1, 14] [µM] | GI50 at 72 h [13] [µM] | tumor selectivity index (SI) HuT78 [9] | also measured
41 ± 0.5 | > 100 | 84 ± 7.7 | 100 | 22.3 ± 7.4 | 13.4 ± 2.6 | 15.6 ± 9.8 | Clc1ccc2[nH]c(-c3ccc(N4CCN(c5ccnc6cc(Cl)ccc56)CC4)cc3)nc2c1 [Compound 8e, 7-chloro-4-(4-(4-(5-chloro-1H-benzo[d]imidazol-2-yl)phenyl)piperazin-1-yl)quinoline] | 2.7 ± 0.3 | – | – | GI50 ([8]; MDCK1, leukemia and lymphoma cell lines, read-out: GI50 range, leukemia and lymphoma cells): 13.4 to 41 µM
> 100 | > 100 | > 100 | > 100 | > 100 | > 100 | 66.2 ± 14.6 | Clc1ccc2c(Nc3cccc(-c4nc5cc(C6=NCCN6)ccc5[nH]4)c3)ccnc2c1 [Compound 5c, 7-chloro-N-(3-(5-(4,5-dihydro-1H-imidazol-2-yl)-1H-benzo[d]imidazol-2-yl)phenyl)quinolin-4-amine trihydrochloride] | > 100 | – | – | –
15.6 ± 3.4 | 1.1 ± 0.1 | 11.1 ± 1.6 | 11.8 ± 1.2 | 2.1 ± 0.9 | 5.4 ± 2 | 6.7 ± 0.5 | Clc1ccc2[nH]c(-c3cccc(Nc4ccnc5cc(Cl)ccc45)c3)nc2c1 [Compound 5e, 7-chloro-N-(3-(5-chloro-1H-benzo[d]imidazol-2-yl)phenyl)quinolin-4-amine] | 11.4 to 20.4 | – | – | GI50 ([1]; 72 h): 11.4 ± 6.2 µM; GI50 ([8]; MDCK1, range over tumor cell lines, read-out: GI50 range, tumor cell lines): 0.4 to 15.6 µM; GI50 / inhibitory potential, normal and tumor cells ([8]; over all tested cell lines): strong antiproliferative activity
> 100 | > 100 | > 100 | > 100 | > 100 | > 100 | 41.8 ± 8.2 | CC(C)NC(=N)c1ccc2[nH]c(-c3cccc(Nc4ccnc5cc(Cl)ccc45)c3)nc2c1 [Compound 5b, 2-(3-(7-chloroquinolin-4-ylamino)phenyl)-N-isopropyl-1H-benzo[d]imidazole-5-carboximidamide trihydrochloride] | > 100 | – | – | –

Compound | GI50 [2] [µM] | GI50 [3] [µM] | GI50 [4] [µM] | GI50 [5] [µM] | GI50 [6] [µM] | GI50 [7] [µM] | GI50 [9] [µM] | GI50 [1, 14] [µM] | GI50 at 72 h [13] [µM] | tumor selectivity index (SI) HuT78 [9] | also measured
O=C(NCCNc1ccnc2cc(Cl)ccc12)c1ccc(-c2nc3ccccc3[nH]2)cc1 [Compound 12d, 4-(1H-benzo[d]imidazol-2-yl)-N-(2-(7-chloroquinolin-4-ylamino)ethyl)benzamide] | 17.2 ± 7.7 | 16.4 ± 5.6 | 20 ± 7.2 | 100 | 4 ± 0.8 | 57.7 ± 23.8 | 3.5 ± 1.5 | 100 | 0.4 to 8 | 28.5 | proportion of polyploid giant cancer cells (HuT78 cells [10]): increased proportion; increase of cells in subG0/G1 phase (HuT78 cells [10]; vs control): 46 times; decrease in G0/G1 phase (HuT78 cells [10]; vs non-treated cells): 63.8%; cells with mitochondrial membrane disruption / change in ∆Ψm (HuT78 cells [11]): more than 85%; changes in the other phases of the cell cycle (other than subG0/G1) (THP-1 cells): not statistically significant; increase of cells in subG0/G1 phase (THP-1 cells; vs control): 3.4 times; cells in early apoptosis (HuT78 cells [12]): 3.97%; cells in late stage of apoptosis/necrosis (HuT78 cells [12]): 83.75%
Clc1ccc2c(N3CCN(c4ccc(-c5nc6ccccc6[nH]5)cc4)CC3)ccnc2c1 [Compound 8d, 4-(4-(4-(1H-benzo[d]imidazol-2-yl)phenyl)piperazin-1-yl)-7-chloroquinoline] | 5 ± 2.6 | > 100 | > 100 | > 100 | 3.2 ± 1.1 | 3.8 ± 0.5 | 8.1 ± 4.7 | > 100 | 0.4 to 8 | > 12.3 | changes in the cell cycle (HuT78 cells [10]; vs non-treated cells): no significant changes; tumor selectivity index (SI) CCRF CEM ([2]; with respect to MDCK1 cells): > 20; changes in the cell cycle (THP-1 cells; vs non-treated cells): no significant changes; tumor selectivity index (SI) THP1 ([6]; with respect to MDCK1 cells): > 31.5; tumor selectivity index (SI) Raji ([7]; with respect to MDCK1 cells): > 26.3; GI50 ([8]; MDCK1 and carcinoma cell lines, read-out: GI50, normal and carcinoma cells): > 100 µM
